This is an account of results in US4977180A, “Novel prolinal derivatives” (Ono Pharmaceutical Co., Ltd., priority 1987, dated 1990).

Where a SMILES comes first, the peptide text is derived from it. [ ]: non-standard residue; d: D form. The star is where a group is joined. ξ: configuration not given here. Cbz = O=C(OCc1ccccc1)*; ξP = O=C(O)C1CCCN1; CH2Cl = ClC*

T1 sequence (Q9XTA2 whole entry): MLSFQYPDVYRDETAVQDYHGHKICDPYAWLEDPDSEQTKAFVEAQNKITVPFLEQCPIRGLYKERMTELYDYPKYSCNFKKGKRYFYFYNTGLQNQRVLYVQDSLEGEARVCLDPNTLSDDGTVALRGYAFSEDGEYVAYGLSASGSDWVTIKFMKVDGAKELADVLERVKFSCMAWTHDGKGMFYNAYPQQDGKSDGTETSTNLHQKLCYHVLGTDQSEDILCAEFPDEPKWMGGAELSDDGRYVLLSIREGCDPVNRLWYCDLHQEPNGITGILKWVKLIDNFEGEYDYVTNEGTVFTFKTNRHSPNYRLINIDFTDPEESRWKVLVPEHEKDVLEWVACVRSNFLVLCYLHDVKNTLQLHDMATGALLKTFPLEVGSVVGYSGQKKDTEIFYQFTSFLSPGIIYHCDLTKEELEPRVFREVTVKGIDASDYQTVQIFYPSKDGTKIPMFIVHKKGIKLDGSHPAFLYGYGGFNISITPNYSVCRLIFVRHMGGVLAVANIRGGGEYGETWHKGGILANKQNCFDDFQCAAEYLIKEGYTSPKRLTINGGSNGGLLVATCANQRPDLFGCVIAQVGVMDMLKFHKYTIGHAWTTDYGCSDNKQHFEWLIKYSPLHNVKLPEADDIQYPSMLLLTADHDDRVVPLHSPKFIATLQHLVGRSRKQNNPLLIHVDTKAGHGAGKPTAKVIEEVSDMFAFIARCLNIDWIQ

The first test has as its system prolyl endopeptidase.
Assay: not given
Conditions: in words; J. Neurochem., 41, 69 (1983); cited from earlier work.
For `O=C(NCC(=O)N1CCC[C@H]1C(=O)CCl)OCc1ccccc1` [N-benzyloxycarbonyl-glycyl-L-prolyl-chloromethane] (Cbz-Gly-Pro-CH2Cl), the inhibits prolyl endopeptidase result was “strongly inhibits prolyl endopeptidase”.

Consider `O=CC1CCCN1C(=O)[C@@H]1CCCN1C(=O)OCc1ccccc1` (stereo partly drawn) [N-benzyloxycarbonyl-L-propyl-prolinal] (Cbz-Pro-[ξP]-aldehyde), for which the inhibits prolyl endopeptidase result is reported as “strongly inhibits prolyl endopeptidase”.

A further test concerns the target T1, prolyl endopeptidase (Bos taurus, UniProt Q9XTA2).
T1 construct: prolyl endopeptidase which was purified from bovine brain; from tissue; host or cells: bovine brain
Put plainly: Prolyl endopeptidase inhibitory activity in vitro. In kind it is biochemical. The settings on record: prolyl endopeptidase purified from bovine brain, pH 7.5, 37° C., substrate N-benzyloxycarbonyl-glycyl-prolyl-p-nitroanilide, 30 mins' incubation, read-out: Concentration for 50% inhibition IC50. On the procedure:
Inhibitory activity of prolyl endopeptidase in vitro was measured by the following test system.
A mixed solution of 20 mM tris-HCl buffer (pH 7.5; 935 μl; containing 10 mM EDTA and 10 mM mercaptoethanol), a solution of a compound of the present invention in DMSO (10 μl) and a solution of prolyl endopeptidase which was purified from bovine brain (0.13 unit; prepared by the method described in J. Biochem., 94, 1179 (1983)) in tris-HCl buffer (15 μl) was preincubated for 15 mins at 37° C.
To the solution, 5 mM of N-benzyloxycarbonyl-glycyl-prolyl-p-nitroanilide (40 μl) in a mixture of 40% dioxane-60% water was added. The solution was incubated for 1 min at the same temperature.
Optical absorption (a1) at 405 nm of the solution, and optical absorption (a2) at 405 nm of the solution after 30 mins' further incubation at 37° C. were measured.
Optical absorptions (b1 and b2) of the solutions using DMSO instead of the solution of the compound of the present invention were also measured.
Inhibitory ratio was calculated by the following expression and IC50 (required concentration for 50% inhibition) was obtained (See Protein, Nucleic acid and Enzyme 25(6), 513, 1980.). [formula]
Consider `O=C[C@@H]1CCCN1C(=O)CCC(=O)CCCc1ccccc1` [Example 1, N-(7-phenyl-4-oxoheptanoyl)-L-prolinal], for which the IC50 turned out to be 27 nM. On the same count and under the same terms, the result for `O=C[C@@H]1CCCN1C(=O)CCC(=O)CCc1ccccc1` [1 (a), N-(6-phenyl-4-oxohexanoyl) L-prolinal] reads 120 nM; that for `O=C[C@@H]1CCCN1C(=O)[C@@H]1CCC[C@H]1C(=O)CCc1ccccc1` (mixture of isomers) [1 (b), N-[trans-2-(3-phenylpropanoyl)cyclopentanecarbonyl]-L-prolinal], 14 nM.

In the case of `O=C[C@@H]1CCCN1C(=O)CCC(=O)CCc1cccc2ccccc12` [1 (k), N-[6-(1-naphthyl)-4-oxohexanoyl]-L-prolinal], the IC50 was found to be 18 nM.

On to `O=C[C@@H]1CCCN1C(=O)CCC(=O)CCc1ccc(Cl)cc1` [1 (h), N-[6-(4-chlorophenyl)-4-oxohexanoyl]-L-prolinal], for which the IC50 was 29 nM.

Regarding `COc1ccc(CCC(=O)CCC(=O)N2CCC[C@H]2C=O)cc1` [1 (g), N-[6-(4-methoxyphenyl)-4-oxohexanoyl]-L-prolinal], the IC50 came to 84 nM. Same read-out and setting: the same measure for `O=C[C@@H]1CCCN1C(=O)CCC(=O)CCCCc1ccccc1` [1 (f), N-(4-oxo-8-phenyloctanoyl)-L-prolinal]: 62 nM. On the same count and under the same terms, the same measure for `O=C[C@@H]1CCCN1C(=O)CCC(=O)CCc1ccc(C(F)(F)F)cc1` [1 (m), N-[4-oxo-6-(p-trifluoro-methylphenyl)hexanoyl]-L-prolinal]: 15 nM; for `O=C[C@@H]1CCCN1C(=O)CCC(=O)CCc1ccc2ccccc2c1` [1 (l), N-[6-(2-naphthyl)-4-oxohexanoyl]-L-prolinal]: 39 nM. Still for that read-out and setting: the result for `O=C[C@@H]1CCCN1C(=O)CCC(=O)CCc1cccc(Cl)c1` [1 (e), N-[6-(3-chlorophenyl)-4-oxohexanoyl]-L-prolinal] reads 50 nM; that for `O=C[C@@H]1CCCN1C(=O)CCC(=O)CCCc1ccccc1[N+](=O)[O-]` [1 (j), N-[7-(2-nitrophenyl)-4-oxoheptanoyl]-L-prolinal], 32 nM; that for `O=C[C@@H]1CCCN1C(=O)[C@@H]1CCCC[C@H]1C(=O)CCc1ccccc1` (mixture of isomers) [1 (c), N-[trans-2-(3-phenylpropanoyl)cyclohexanecarbonyl]-L-prolinal], 24 nM.

As for `Cc1ccc(CCC(=O)CCC(=O)N2CCC[C@H]2C=O)cc1` [1 (i), N-[6-(4-methylphenyl)-4-oxohexanoyl]-L-prolinal], the IC50 amounted to 11 nM. As for `CC(C)C(C(=O)CCCCc1ccccc1)C(=O)N1CCC[C@H]1C=O` (stereo partly drawn) [1 (d), N-(2RS-isopropyl-3-oxo-7-phenylheptanoyl)-L-prolinal], the IC50 came to 150 nM.
